One series has as its system L1210. More on the design: method as in PMID 19036587, PMID 23010140, PMID 28709952. Particulars: cited from earlier work.
Another series concerns K562. More on the design: method as in PMID 19036587, PMID 23010140, PMID 28709952. To be noted: cited from earlier work.
Another series has as its system ASCT2 Transport. More on the design: method as in PMID 19036587, PMID 23010140, PMID 28709952. Particulars: cited from earlier work.
The subject of a further series is E. faecalis. Details: method as in PMID 19036587, doi:10.1016/0960-894X(96)00062-5, doi:10.1016/0960-894X(96)00423-4, doi:10.1016/S0223-5234(98)80040-8. Particulars: cited from earlier work.
The subject of another series is S. aureus. More on the design: method as in PMID 19036587, doi:10.1016/0960-894X(96)00062-5, doi:10.1016/0960-894X(96)00423-4, doi:10.1016/S0223-5234(98)80040-8. To be noted: cited from earlier work.
The test system of the next series is L. monocytogenes. More on the design: method as in PMID 19036587, doi:10.1016/0960-894X(96)00062-5, doi:10.1016/0960-894X(96)00423-4, doi:10.1016/S0223-5234(98)80040-8. Particulars: cited from earlier work.
A further series concerns C. neoformans. Details: method as in earlier work. To be noted: cited from earlier work.
For another series, the system named is haemolytic activity. The experiment in a line: Haemolysis assay. Format: cell-based. The method, then:
Hc10 (concentration at 10% haemolytic activity) was calculated by curve fitting the inhibition values vs. log(concentration) using a Sigmoidal dose-response function, with variable values for bottom, top and slope. The curve fitting is implemented using Pipeline Pilot’s dose-response component (giving similar results to similar tools such as GraphPad’s Prism and IDBS’s XlFit). […] DMax represents the highest percentage inhibition response for all concentrations tested. […] In addition, the value indicates if samples have been active, but curve fitting failed, mostly because only the single highest concentration was active.

The next series has as its system HEK293 cells. The experiment in a line: Cytotoxicity assay (resazurin). Format: cell-based. The method, then:
(§1) HEK293 cells were counted manually in a Neubauer haemocytometer and then plated in the 384-well plates containing the compounds to give a density of 6000 cells/well in a final volume of 50 μL. DMEM supplemented with 10% FBS was used as growth media and the cells were incubated together with the compounds for 20 h at 37 °C in 5% CO2. Analysis: Cytotoxicity (or cell viability) was measured by fluorescence, ex: 560/10 nm, em: 590/10 nm (F560/590), after addition of 5 μL of 25 μgmL^−1 Resazurin (2.3 μgmL^−1 final concentration) and after incubation for further 3h at 37 °C in 5% CO2. The fluorescence intensity was measured using a Tecan M1000 Pro monochromator plate reader, using automatic gain calculation CC50 (concentration at 50% cytotoxicity) were calculated by curve fitting the inhibition values vs. log(concentration) using sigmoidal dose-response function, with variable fitting values for bottom, top and slope.
On the technique in general: Alamar Blue is a resazurin reagent that responds to reducing activity.

The subject of series [1] is C. neoformans (Strain ATCC 208821, H99 Type strain). The series is described as follows: Antifungal assay, MIC. Format: cell-based, Cryptococcus neoformans var. grubii. The method, then: (§2) Fungi strains C. albicans (Strain ATCC 90028, CLSI reference) and C. neoformans (Strain ATCC 208821, H99 Type strain), were cultured for 3 days on Yeast Extract-Peptone Dextrose (YPD) agar at 30 °C. A yeast suspension of 1 × 10^6 to 5 × 10^6 CFU/mL (as determined by OD530) was prepared from five colonies. The suspension was subsequently diluted and added to each well of the compound-containing plates giving a final cell density of fungi suspension of 2.5 × 10^3 CFU/mL and a total volume of 50 μL. All plates were covered and incubated at 35 °C for 36 h without shaking.
(§3) Analysis: Growth inhibition of C. albicans was determined measuring absorbance at 630 nm (OD630), while the growth inhibition of C. neoformans was determined measuring the difference in absorbance between 600 and 570 nm (OD600–570), after the addition of resazurin (0.001% final concentration) and incubation at 35 °C for 2 h. The absorbance was measured using a Biotek Multiflo Synergy HTX plate reader. In both cases, the percentage of growth inhibition was calculated for each well, using the negative control (media only) and positive control (fungi without inhibitors) on the same plate. […] Due to a higher variance in growth and inhibition, a lower threshold was applied to the data for C. neoformans.

The test system of series [2] is C. albicans (Strain ATCC 90028, CLSI reference). The experiment in a line: Antifungal assay, MIC. Format: cell-based, Candida albicans. The method, then:
as §2, §3

In series [3] the test system is Staphylococcus aureus, Acinetobacter baumannii, Candida albicans and Cryptococcus neoformans var. grubii. The series is described as follows: Initial antimicrobial screen (CO-ADD). Format: cell-based. Particulars: 10 μM; Active / Inactive. The source says:
We then screened this series of 1,2,3-dithiazoles and 1,2,3-thiaselenazoles (8−15) against Staphylococcus aureus, Acinetobacter baumannii, Candida albicans and Cryptococcus neoformans var. grubii (Table 1) as part of the Community for Antimicrobial Drug Discovery (CO-ADD) initiative to develop new lead compounds [51]. These represent three distinct classes of microbes. Staphylococcus aureus (ATCC 43300) is a gram-positive bacterium derived from the super bug methicillin-resistant Staphylococcus aureus (MRSA). Acinetobacter baumannii (ATCC 19606) is a gram-negative bacterium hospital-derived infection with very few antibiotics that can treat this pathogen. Candida albicans (ATCC 90028) and Cryptococcus neoformans var. grubii (ATCC 208821) are both opportunistic fungi. These fungal pathogens are particularly dangerous for patients in hospital with immunodeficiencies, undergoing cancer chemotherapy and organ transplantation. These strains are considered by the World Health Organization (WHO) to be the highest priority to develop novel antibiotics for control of these bacteria and fungi. These are some of the most difficult to treat, particularly in a hospital setting where sepsis and pneumonia can quickly overcome the body’s immune system.
The 1,2,3-thiaselenazole analog (13) was potent on against three of the four pathogens with a similar profile to 9a without the activity on A. baumannii.
Antimicrobial screening was performed by CO-ADD (The Community for Antimicrobial Drug Discovery), Australia.
(§4) All bacteria, S. aureus (Strain ATCC 43300, MRSA), E. coli (Strain ATCC 25922, FDA control strain), K. pneumoniae (Strain ATCC 700603, MDR), A. baumannii (Strain ATCC 19606, Type strain), P. aeruginosa (Strain ATCC 27853, Quality control strain), were cultured in Cation-adjusted Mueller Hinton broth (CAMHB) at 37 °C overnight. A sample of each culture was then diluted 40-fold in fresh broth and incubated at 37 °C for 1.5–3 h. The resultant mid-log phase cultures were diluted (CFU/mL measured by OD600), then added to each well of the compound containing plates, giving a cell density of 5 × 10^5 CFU/mL and a total volume of 50 μL. All the plates were covered and incubated at 37 °C for 18 h without shaking.
(§5) Analysis: Inhibition of bacterial growth was determined measuring absorbance at 600 nm (OD600), using a Tecan M1000 Pro monochromator plate reader. The percentage of growth inhibition was calculated for each well, using the negative control (media only) and positive control (bacteria without inhibitors) on the same plate as references. […]
Fungi strains C. albicans (Strain ATCC 90028, CLSI reference) and C. neoformans (Strain ATCC 208821, H99 Type strain), were cultured for 3 days on Yeast Extract-Peptone Dextrose (YPD) agar at 30 °C. A yeast suspension of 1 × 10^6 to 5 × 10^6 CFU/mL (as determined by OD530) was prepared from five colonies. The suspension was subsequently diluted and added to each well of the compound-containing plates giving a final cell density of fungi suspension of 2.5 × 10^3 CFU/mL and a total volume of 50 μL. All plates were covered and incubated at 35 °C for 36 h without shaking. […]

Series [4] concerns A. baumannii (Strain ATCC 19606, Type strain). The series is described as follows: Antibacterial assay, MIC. The class given is cell-based, Acinetobacter baumannii. Particulars: Acinetobacter baumannii, ATCC19606; ATCC 19606; MIC = lowest concentration with inhibition ≥80%. How it is done:
as §4, §5

In series [5] the test system is S. aureus (Strain ATCC 43300, MRSA). The experiment in a line: Antibacterial assay, MIC. Format: cell-based, Staphylococcus aureus. Particulars: Staphylococcus aureus; ATCC 43300 (MRSA); MIC = lowest concentration with inhibition ≥80%. The method, then: as §4, §5
A short description of series [6]: Cytotoxicity assay (resazurin). Particulars: human; HEK293 cells, 20 h; unit not given in Table 1; read-out: CC50 (concentration at 50% cytotoxicity). The class given is cell-based. How it is done:
as §1

≈ marks a conversion by molar mass, not a printed value.

In general, IC50 refers to the midpoint of a concentration-inhibition curve. Usually MIC stands for the least concentration at which growth counts as inhibited. By melting point is commonly meant the temperature of the solid-liquid transition.

For `N#Cc1cnn(CCc2ccccc2)c1/N=c1/ssnc1Cl` [Compound 1], the 50% inhibitory concentration (IC50) is 5 µM in the series on L1210 and 3 µM in the series on K562.

On to `N#Cc1ncn(CCc2ccccc2)c1/N=c1/ssnc1Cl` [Compound 2], for which the IC50 was 3 µM with L1210 and 4 µM with K562.

`FC(F)(F)Oc1ccc(/N=c2/ssnc2Cl)cc1Cl` [Compound 3]: the concentration for half-maximal inhibition (IC50) in the series on ASCT2 Transport was 8.1 µM.

`Clc1nss/c1=N/c1ccccc1` [Compound 4]: the “MIC E. faecalis” value in the series on E. faecalis was 16 µg/mL (≈ 70 µM). Further, the “MIC S. aureus” value with S. aureus is 16 µg/mL (≈ 70 µM). Further, the “MIC L. monocytogenes” value with L. monocytogenes was 16 µg/mL (≈ 70 µM).

With `COc1ccccc1/N=c1/ssnc1Cl` [Compound 5], in the series on E. faecalis, the “MIC E. faecalis” value was 16 µg/mL (≈ 61.8 µM). For the same molecule, the “MIC L. monocytogenes” value with L. monocytogenes is 16 µg/mL (≈ 61.8 µM).

For `N#Cc1ccccc1/N=c1/ssnc1Cl` [Compound 6], the “MIC C. neoformans” value in the series with C. neoformans is 8 µg/mL (≈ 31.5 µM).

With `COc1ccc(/N=c2/ssnc2Cl)cc1` [Compound 7], in the series on C. neoformans, the “MIC C. neoformans” value was 8 µg/mL (≈ 30.9 µM).

As to `c1ccc(-c2c3ssnc-3c3ccccc23)cc1` [Compound 8a], in the series on haemolytic activity, the “Haemolysis (in words)” value is “no toxicity or haemolysis”. The “Toxicity (in words)” value in the series on HEK293 cells is “no toxicity or haemolysis”. Moreover, the “Activity against C. neoformans (in words)” value in [1] is listed as “antifungal selective”. In addition, the “Activity against C. albicans (in words)” value in series [2] is on record as “antifungal selective”. Moreover, the “Initial Screen” value in series [3] was “Inactive”.

Molecule `c1ccc2c(c1)N=C1S[Se]N=C1O2` [Compound 15, Benzo[b][1,2,3]thiaselenazolo[5,4-e][1,4]oxazine] had a melting point of 178 to 180 °C. Also, in series [4], the MIC is greater than 32 µg/mL. The “Hc10 (concentration at 10% haemolytic activity)” value with haemolytic activity (unit not given) is recorded as greater than 32. Besides, the minimal inhibitory concentration (MIC) in series [5] is greater than 32 µg/mL. Besides, the CC50 at 20 h in series [6] is greater than 32 µg/mL. Further, the “Toxicity (in words)” value with HEK293 cells is listed as “no toxicity”. Moreover, in [1], the “Activity against C. neoformans (in words)” value was “recovered some antifungal activity”. In [1] (Cryptococcus neoformans, ATCC208821, ATCC 208821, inhibition ≥70% (method)), the minimal inhibitory concentration (MIC) came out at 2 µg/mL. Besides, the “Activity against C. albicans (in words)” value in series [2] is on record as “recovered some antifungal activity”. Also, in [2] (Candida albicans, ATCC90028, ATCC 90028, inhibition ≥80%), the MIC is no more than 0.25 µg/mL.

The record behind these values is article PMC7400446, “Antimicrobial and Antifungal Activity of Rare Substituted 1,2,3-Thiaselenazoles and Corresponding Matched Pair 1,2,3-Dithiazoles” (Antibiotics, 2020).
